The values below come from PubChem BioAssay (NCI).

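The compound was tested at five concentrations on cells cultured in 96-well plates, with a 48-hour exposure period. TGI marks complete inhibition of growth.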

Assay in all cases: NCI anticancer screen, dose series, 48 h
Test [1] concerns A498 renal.
Test [2] has as its system CCRF-CEM leukemia.
The subject of test [3] is DU-145 prostate.
Test [4] concerns HOP-92 NSCLC.
Test [5] concerns K-562 leukemia.
Test [6] relates to KM12 colon.
Test [7] relates to MDA-MB-231 breast.
For test [8], the system named is MDA-MB-435.
Test [9] has as its system NCI-H226 lung.
Test [10] deals with NCI-H522 lung.
Test [11] concerns OVCAR-8 ovarian.
In test [12] the test system is SF-539 CNS.
Test [13] concerns SK-MEL-28 melanoma.
In test [14] the test system is SK-OV-3 ovarian.
Test [15] deals with SNB-75 CNS.

On to `O=C1c2c(ccc3c2CCC3)CC12Cc1cc3c(cc1C2)CCC3`, for which the TGI in [1], in test [2], in test [3], in [4], in test [5] and in [6] was > 100 µM in each case. Besides, the TGI in test [7], in test [8], in [9], in test [10], in [11] and in test [12] was > 100 µM throughout. Moreover, the TGI in test [13], in test [14] and in test [15] was > 100 µM in each case.
In the case of `O=c1c2cc([N+](=O)[O-])ccc2n2n1Cc1ccccc1C2`, the TGI in test [1], in test [2], in test [3], in test [4], in test [5] and in [6] was > 100 µM each time. Further, the TGI in test [7], in test [8], in [9], in test [10], in test [11] and in test [12] was > 100 µM in each case. Besides, the TGI in test [13], in [14] and in test [15] was > 100 µM each time.
As to `COc1c2ccccc2c(OC)c2nc(C)ccc12`, the TGI in test [1] was > 100 µM; in test [2], 71.6 µM; in test [3], > 100 µM; in [4] it was > 100 µM; in test [5], > 78.6 µM; in test [6], > 100 µM. The TGI in test [7], in test [8], in [9], in [10], in test [11] and in [12] was > 100 µM throughout. In addition, the TGI in test [13], in test [14] and in [15] was > 100 µM in each case.
Consider `COc1ccc(-c2c(CN3CCOCC3)sc3nc4ccccc4n23)cc1`, for which the TGI in test [1] is 72.4 µM; in [2], 56.2 µM; in [3], > 100 µM; in [4], > 100 µM; in test [5] it was > 28.7 µM; in test [6] it was > 100 µM. Besides, the TGI is > 68.9 µM in test [7]; 14.4 µM in [8]; > 79.8 µM in [9]; > 20.2 µM in test [10]; > 100 µM in [11]; 41.7 µM in test [12]. In addition, the TGI in [13] is 98.6 µM; in [14], 94.9 µM; in test [15], > 100 µM.
Take `Nc1cn(Cc2ccccc2)c2nc(/C=C3/C=CC=CC3=O)c(O)n12`: the TGI in test [1], in test [2], in test [3], in test [4], in test [5] and in test [6] was > 100 µM each time. In addition, the TGI in test [7], in test [8], in test [9], in [10], in [11] and in test [12] was > 100 µM each time. The TGI in test [13], in test [14] and in [15] was > 100 µM throughout.
Take `CNn1c(C)n[nH]c1=O`: the TGI in [1], in test [2], in test [3], in [4], in test [5] and in test [6] was > 100 µM throughout. Also, the TGI in test [7], in test [8], in test [9], in [10], in test [11] and in test [12] was > 100 µM in each case. The TGI was > 100 µM in [13], > 100 µM in test [14] and 85.1 µM in [15].
For `CN(C)C(=O)Nc1cc2c3c(c1)CCCN3CCC2`, the TGI in test [1], in test [2], in test [3], in [4], in [5] and in [6] was > 10 µM each time. For the same molecule, the TGI in test [7], in [8], in test [9], in test [10], in test [11] and in test [12] was > 10 µM each time. Further, the TGI in test [13], in [14] and in test [15] was > 10 µM each time.
Take `Cc1occc1C(=S)Nc1ccc(Cl)c(/C=N/OC(C)C)c1`: the TGI is 49.9 µM in [1]; 44.4 µM in [2]; > 54.2 µM in test [3]; 37.4 µM in test [4]; > 100 µM in test [5]; 53.6 µM in [6]. The TGI was 32.6 µM in [7]; 31 µM in test [8]; 37.6 µM in [9]; 28.5 µM in test [10]; > 55.4 µM in test [11]; 32.9 µM in test [12]. In addition, the TGI is > 56.4 µM in test [13], > 56.7 µM in [14] and 72.7 µM in test [15].
`N#Cc1c(Cl)/c(=C/O)c(=O)n2c1nc1ccccc12`: the TGI in test [1] was 72.1 µM; in test [2], > 100 µM; in test [3] it was > 100 µM; in [4] it was 68.1 µM; in test [5] it was > 100 µM; in test [6] it was > 100 µM. In addition, the TGI in test [7] is > 100 µM; in test [8] it was > 100 µM; in [9], 52 µM; in test [10] it was > 100 µM; in [11], > 100 µM; in test [12], > 100 µM. Also, the TGI in test [13], in test [14] and in [15] was > 100 µM each time.
`COc1cccc2c(Nc3ccc(S(=O)(=O)NC(C)=O)cc3)c3ccc([N+](=O)[O-])cc3nc12`: the TGI in test [1] is > 100 µM; in test [2], > 100 µM; in [3] it was > 100 µM; in test [4] it was > 100 µM; in test [5], > 84.7 µM; in [6], > 35.3 µM. In addition, the TGI was 56.6 µM in [7]; > 65.2 µM in test [8]; > 64.7 µM in test [9]; > 100 µM in test [10]; > 100 µM in test [11]; > 100 µM in test [12]. Besides, the figures for the TGI in [13], in test [14] and in test [15] were > 79.5 µM, > 100 µM and > 100 µM, respectively.
Consider `C=C1CC(C)(COc2ccc3ccc(=O)oc3c2)OC1=O` (stereo not given), for which the TGI in test [1] stood at 23.1 µM; in test [2] it was 5.11 µM; in test [3], 12.5 µM; in [4], 4.4 µM; in test [5] it was 32.1 µM; in test [6] it was 17.6 µM. In addition, the TGI in test [7] was 24.6 µM; in test [8], 9.35 µM; in test [9] it was 27.3 µM; in [10], 2.84 µM; in test [11], 19.7 µM; in test [12], 10.2 µM. The TGI amounted to 11.2 µM in test [13], 21.4 µM in [14] and 22.6 µM in test [15].
For the molecule `[O-][n+]1onc(-c2ccccc2)c1CN1CCOCC1`, the TGI in [1], in [2], in [3], in test [4], in test [5] and in test [6] was > 100 µM throughout. Further, the TGI in test [7], in test [8], in test [9], in [10], in test [11] and in test [12] was > 100 µM each time. The TGI in test [13], in [14] and in test [15] was > 100 µM throughout.
For `COC(=O)C1=C(\c2ccccc2)c2ccccc2C(=O)N(C2CCCCC2)/C=C\1`, the TGI in test [1] was > 100 µM; in [2], 75.5 µM; in test [3], > 100 µM; in test [4], 95.2 µM; in test [5], > 100 µM; in test [6] it was 45.8 µM. In addition, the TGI in [7] was 45.1 µM; in test [8], 45.1 µM; in [9], 81.5 µM; in test [10], > 100 µM; in test [11] it was > 100 µM; in test [12], 55.9 µM. In addition, the TGI in test [13] was 39.8 µM; in test [14], > 100 µM; in test [15], > 100 µM.
Regarding `O=[N+]([O-])c1ccc2[nH]ncc2c1Cl`, the TGI was > 100 µM in test [1]; > 100 µM in test [2]; 32.2 µM in test [3]; > 100 µM in test [4]; > 100 µM in [5]; > 100 µM in [6]. The TGI in test [7] was 35 µM; in test [8], > 100 µM; in [9], > 100 µM; in test [10], 16.5 µM; in test [11], > 100 µM; in test [12] it was > 100 µM. The TGI in test [13], in test [14] and in test [15] was > 100 µM throughout.
On to `Cc1cccc(C)c1NC(=S)NC=C(C(N)=O)C(N)=O`, for which the TGI in [1], in test [2], in test [3], in [4], in test [5] and in test [6] was > 100 µM in each case. Also, the TGI in test [7], in test [8], in test [9], in [10], in [11] and in [12] was > 100 µM throughout. Further, the TGI in test [13], in [14] and in test [15] was > 100 µM throughout.
In the case of `O=C(O)c1ccc(Nc2nc3ccccc3nc2-c2cccs2)cc1`, the TGI in [1], in [2], in test [3], in test [4], in test [5] and in test [6] was > 100 µM each time. Moreover, the TGI in test [7], in [8], in test [9], in [10], in test [11] and in test [12] was > 100 µM each time. In addition, the TGI in test [13], in test [14] and in test [15] was > 100 µM throughout.
Take `c1ccc(Nc2nnc(Cn3ccc4ccccc43)s2)cc1`: the TGI in test [1], in test [2], in test [3], in [4], in test [5] and in test [6] was > 100 µM in each case. In addition, the TGI in test [7], in [8], in test [9], in test [10], in test [11] and in test [12] was > 100 µM throughout. For the same molecule, the TGI in test [13] was > 100 µM; in [14], > 100 µM; in test [15], 82.8 µM.
On to `OC(C/C(=N\N1CCCCC1)c1cccs1)(C(F)(F)F)C(F)(F)F`, for which the TGI in [1], in [2], in [3], in [4], in test [5] and in test [6] was > 10 µM throughout. For the same molecule, the TGI in [7], in test [8], in test [9], in [10], in test [11] and in test [12] was > 10 µM throughout. Moreover, the TGI in [13], in test [14] and in test [15] was > 10 µM in each case.
